We go through 15 molecules from US11897917B2, “Bioconjugation of polypeptides” (The University of York, priority 2017, dated 2024).

One test concerns the target GFP(Y39ThzK) 2B (Aequorea victoria, UniProt P42212, F64L/H231L/S65T/V163A/Y39K). The settings on record: for effect on GFP (denaturation / unfolding): initial screen, 100 equivalents. How it is done: Palladium reagent 9 to 12 (stock 550 mM in DMSO, final concentration 33 mM) was added to 2b (stock 330 μM in buffer D1, final concentration 300 μM) in a 0.5 mL Eppendorf tube. The reaction mixture was vortex mixed for 1 s and incubated in a water bath at 37° C. The reaction was quenched by the addition of DTT (ca. 5 mg) and centrifuged (5000×g, 2 min). The supernatant was decanted and desalted using a PD SpinTrap G25 column (GE Healthcare Life Sciences) into H2O for mass spectrometry analysis or further manipulation.
Initially a reaction was set up using 25 μM of 2B (final concentration), 100 μM palladium catalyst (final concentration) in PBS pH 7.4. The reaction mix was then incubated at 37° C. for 1 hour before addition of 1 μl of 1% 3-mercaptopropanoic acid solution for every 10 μl of reaction solution in order to quench excess catalyst. Quenched solution was then incubated at room temperature for 15 minutes and then desalted using a PD SpinTrap G25 column (GE Healthcare Life Sciences) into H2O for mass spectrometry analysis or further manipulation. Efficiency of decaging was determined by ESI-MS.
This reaction process was repeated using protein concentrations of 2B up to 300 μM and catalyst concentrations.
9-12 were trialled at 37° C. at pH 7.4 in order to maintain biocompatibility over a range of concentrations and time intervals (Table 1).

The next test concerns glyoxyl-LYRAG 16A. Briefly: screening of organocatalysts and aldehyde donors for OPAL reaction. Here is the method: Initially a panel of secondary amines was screened to investigate their ability to catalyse the ligation using a model peptide substrate, glyoxyl-LYRAG 16A and acetaldehyde as an aldehyde donor 32. Second order rate constants for each catalyst (33-38) at 1, 10, and 25 mM loadings were obtained. Next the nature of the α-carbon substituent of the aldehyde donor was investigated by performing reactions using aldehyde donors bearing an aryl substituent (e.g. phenyl acetylaldehyde). Reactions were as shown in Scheme 7 below.
Encouraged by the biological compatibility and site selectivity in these preliminary ligations, attention next turned to optimizing the OPAL by focusing on the choice of organocatalyst and aldehyde donor species. Initially a panel of secondary amines (33-38) were screened to investigate their ability to catalyse the ligation using a model peptide substrate α-oxo-aldehyde-LYRAG 16A and acetaldehyde 32, and second order rate constants were obtained for each catalyst at 1, 10, and 25 mM loadings (Table 4).

Test [1] deals with α-phenyl-β-hydroxy aldehyde-LYRAG 50. Briefly: screening of aniline catalysts for oxime ligation of aldol-LYRAG. The conditions noted are these: 100 mM catalyst, 37° C., 18 hours. How it is done: […] The solution as then charged with an aniline catalyst 56-59 (1M, 50 μl, DMSO). The reaction was vortexed, and allowed to sit at 37° C. for 18 hours without further agitation. Conversion to the product 52 was confirmed by LC-MS analysis.

The test system is the same in test [2]. Briefly: screening of aniline catalysts and buffer for retro-aldol decomposition of aldol-LYRAG. Here is the method: The solution was then charged with an aniline catalyst (1M in 50 μl DMSO) selected from compounds 56, 57, 58 and 59 as shown in Scheme 10 below. The reaction was vortexed, and allowed to sit at 37° C. for 18 hours without further agitation. Conversion to the product 16A/16B was confirmed by LC-MS analysis.
[…] The solution was then charged with p-anisidine catalyst 57 (1M, 50 μl, DMSO). The reaction was vortexed, and allowed to sit at 37° C. for 18 hours without further agitation (Scheme 11). Conversion to the product 16A/16B was confirmed by LC-MS analysis.

Setting [3] is: 100 equiv. [Pd], 6 h, 37° C., pH 7.4.
Where [4] appears, read: organocatalyst loading 1 mM, Donor R group = CH3.
Where [5] appears, read: organocatalyst loading 1 mM, Donor R group = Phenyl-alanine.
[6] abbreviates: organocatalyst loading 10 mM, Donor R group = CH3.
[7] abbreviates: organocatalyst loading 10 mM, Donor R group = Phenyl-alanine.
[8] abbreviates: organocatalyst loading 25 mM, Donor R group = CH3.
Where [9] appears, read: organocatalyst loading 25 mM, Donor R group = Phenyl-alanine.
Where [10] appears, read: pH 7.5, 50 to 16A, PB 200 mM, 37° C., 18 hours.

Read-outs that look alike come from different tables or passages of the source.

In the case of `CC(=O)[O-].CC(=O)[O-].[Pd+2]` [compound 9, Palladium(II) acetate], the GFP fluorescence result on GFP(Y39ThzK) 2B (100 equiv. [Pd], 6 h) is “Yes”; at GFP(Y39ThzK) 2B (100 equiv. [Pd], 24 h), “Yes”. At GFP(Y39ThzK) 2B (37° C., pH 7.4), the “effect on GFP (denaturation / unfolding)” value is “immediate denaturation and eventual precipitation”.

Take `CN(C)c1ccc(P(C(C)(C)C)C(C)(C)C)cc1.CN(C)c1ccc(P(C(C)(C)C)C(C)(C)C)cc1.[Cl-].[Cl-].[Pd+2]` [compound 10, dichlorobis[di-tert-butyl(4-dimethylaminophenyl)phosphine]palladium(II)]: the GFP fluorescence result on GFP(Y39ThzK) 2B (100 equiv. [Pd], 6 h) is given as “No”; at GFP(Y39ThzK) 2B (100 equiv. [Pd], 24 h), “No”. Also, the “% conversion (decaging)” value at GFP(Y39ThzK) 2B (setting [3]) turned out to be 0%; on GFP(Y39ThzK) 2B (100 equiv. [Pd], 24 h), 0%.

Consider `C=C[CH2-].C=C[CH2-].[Cl][Pd+].[Cl][Pd+]` [compound 11, Allylpalladium(II) chloride dimer], for which the “concentration at which reagent denatures GFP” value at GFP(Y39ThzK) 2B is recorded as “greater than 0.5 mM”. The GFP fluorescence result at GFP(Y39ThzK) 2B (1 equiv. [Pd], 1 h) is given as “Yes”; on GFP(Y39ThzK) 2B (100 equiv. [Pd], 6 h) it was “No”; on GFP(Y39ThzK) 2B (100 equiv. [Pd], 24 h), “No”. The “% conversion (decaging)” value at GFP(Y39ThzK) 2B (setting [3]) amounted to 30%. For the same molecule, the “effect on GFP (denaturation / unfolding)” value at GFP(Y39ThzK) 2B (37° C., pH 7.4) is “immediate denaturation and eventual precipitation”.

Turning to `O=C(/C=C/c1ccccc1)/C=C/c1ccccc1.O=C(/C=C/c1ccccc1)/C=C/c1ccccc1.O=C(/C=C/c1ccccc1)/C=C/c1ccccc1.[Pd].[Pd]` [compound 12, Tris(dibenzylideneacetone)dipalladium(0)], the GFP fluorescence entry on GFP(Y39ThzK) 2B (1 equiv. [Pd], 1 h) is recorded as “Yes”; on GFP(Y39ThzK) 2B (100 equiv. [Pd], 6 h), “Yes”; on GFP(Y39ThzK) 2B (100 equiv. [Pd], 24 h), “Yes”; on GFP(Y39ThzK) 2B (100 equiv. [Pd], 40 h), “Yes”; on GFP(Y39ThzK) 2B (100 equiv. [Pd], 68 h), “Yes”; at GFP(Y39ThzK) 2B (200 equiv. [Pd], 6 h), “Yes”. Besides, the “% conversion (decaging)” value worked out at 80% at GFP(Y39ThzK) 2B (100 equiv. [Pd], 24 h); 100% on GFP(Y39ThzK) 2B (100 equiv. [Pd], 40 h); 90% on GFP(Y39ThzK) 2B (100 equiv. [Pd], 68 h); 40% on GFP(Y39ThzK) 2B (200 equiv. [Pd], 6 h). Besides, the “Conversion of 2B to 13A/B” value on GFP(Y39ThzK) 2B (ESI-MS, after 24 h) was over 95%. In addition, the “time to completion of decaging” value at GFP(Y39ThzK) 2B (after condition optimisation) was at most 24 h. Moreover, the “time to complete decaging” value at GFP(Y39ThzK) 2B (initial conditions) came out at 48 h. Also, the “effect on GFP (denaturation / unfolding)” value on GFP(Y39ThzK) 2B (37° C., pH 7.4) was “did not lead to GFP unfolding”.

`O=C(O)[C@@H]1CCCN1` [compound 33, L-proline]: the “Second Order Rate Constant” value with glyoxyl-LYRAG 16A (setting [4]) amounted to 0.00009 M⁻¹ s⁻¹; in the test on glyoxyl-LYRAG 16A (setting [5]), 1.684 M⁻¹ s⁻¹; with glyoxyl-LYRAG 16A (setting [6]) it was 0.0033 M⁻¹ s⁻¹; in the test with glyoxyl-LYRAG 16A (setting [7]) it was 4.366 M⁻¹ s⁻¹; in the test on glyoxyl-LYRAG 16A (setting [8]), 0.0100 M⁻¹ s⁻¹; in the test on glyoxyl-LYRAG 16A (setting [9]) it was 7.899 M⁻¹ s⁻¹.

In the case of `C1CCNCC1` [compound 35, Piperidine], the “Second Order Rate Constant” value in the test with glyoxyl-LYRAG 16A (setting [4]) was over 0.0001 M⁻¹ s⁻¹; in the test on glyoxyl-LYRAG 16A (setting [6]) it was 0.0009 M⁻¹ s⁻¹; in the test with glyoxyl-LYRAG 16A (setting [8]), 0.0016 M⁻¹ s⁻¹.

Take `O=C(O)[C@@H]1CCN1` [compound 36, L-Azetidine 2 carboxylic acid]: the “Second Order Rate Constant” value with glyoxyl-LYRAG 16A (setting [4]) amounted to 0.0004 M⁻¹ s⁻¹; in the test on glyoxyl-LYRAG 16A (setting [6]) it was 0.0024 M⁻¹ s⁻¹; in the test on glyoxyl-LYRAG 16A (setting [8]), 0.0052 M⁻¹ s⁻¹.

As to `C1CNCCOC1` [compound 37, Homomorpholine], the results for the “Second Order Rate Constant” value with glyoxyl-LYRAG 16A (setting [4]), in the test with glyoxyl-LYRAG 16A (setting [6]) and in the test with glyoxyl-LYRAG 16A (setting [8]) were 0.0022 M⁻¹ s⁻¹, 0.0166 M⁻¹ s⁻¹ and 0.0252 M⁻¹ s⁻¹, respectively.

Regarding `C1CN[C@H](c2nnn[nH]2)C1` [compound 38, (S)-(−)-5-(2-Pyrrolidinyl)-1H-tetrazole], the “Second Order Rate Constant” value stood at 0.0092 M⁻¹ s⁻¹ in the test on glyoxyl-LYRAG 16A (setting [4]); 3.792 M⁻¹ s⁻¹ in the test with glyoxyl-LYRAG 16A (setting [5]); 0.0551 M⁻¹ s⁻¹ in the test with glyoxyl-LYRAG 16A (setting [6]); 11.820 M⁻¹ s⁻¹ with glyoxyl-LYRAG 16A (setting [7]); 0.0997 M⁻¹ s⁻¹ with glyoxyl-LYRAG 16A (setting [8]); 23.947 M⁻¹ s⁻¹ with glyoxyl-LYRAG 16A (setting [9]).

With `Nc1ccccc1` [compound 56, aniline], the “Conjugation Yield (oxime)” value was determined as 61% in test [1] (pH 4.5) and 95% in test [1] (pH 7.5). The Retro-aldol conversion in test [2] (setting [10]) is 25%.

For the molecule `COc1ccc(N)cc1` [compound 57, p-anisidine], the “Conjugation Yield (oxime)” value was found to be 81% in test [1] (pH 4.5) and 92% in test [1] (pH 7.5). For the same molecule, the Retro-aldol conversion in test [2] (PB, pH 7.5, conc. 10 (Mm)) was determined as 0%; in test [2] (PB, pH 7.5, conc. 50 (Mm)) it was 13%; in test [2] (PB, pH 7.5, conc. 100 (Mm)), 50%; in test [2] (setting [10]) it was 52%.

For `COc1ccc(N)c(C(=O)O)c1` [compound 58, 5-methoxy anthranilic acid], the results for the “Conjugation Yield (oxime)” value in test [1] (pH 4.5) and in test [1] (pH 7.5) were 34% and 97%, respectively. This molecule returned a Retro-aldol conversion in test [2] (setting [10]) of 8%.

Take `Nc1cc([N+](=O)[O-])ccc1O` [compound 59, 2-Amino-4-nitrophenol]: the “Conjugation Yield (oxime)” value in test [1] (pH 4.5) is given as “precipitates”; in test [1] (pH 7.5), 97%. Besides, the Retro-aldol conversion in test [2] (setting [10]) was found to be 0%.

With `O=CCc1ccccc1` [phenyl acetylaldehyde], in the test with glyoxyl-LYRAG 16A (with L-proline 33 and tetrazole 38), the “increase in rate over aldehyde donors bearing alkyl substituents” value is listed as at least 240 fold.

As for Pyrrolidine [compound 34], the “Second Order Rate Constant” value in the test on glyoxyl-LYRAG 16A (setting [4]) was determined as 0.0005 M⁻¹ s⁻¹; in the test on glyoxyl-LYRAG 16A (setting [6]), 0.0037 M⁻¹ s⁻¹; in the test with glyoxyl-LYRAG 16A (setting [8]), 0.0058 M⁻¹ s⁻¹.
